Experimental data from paper PMC4823954, “From fighting depression to conquering tumors: a novel tricyclic thiazepine compound as a tubulin polymerization inhibitor” (Cell Death & Disease, 2016).

How the values were obtained:
Experiment in all cases: KINOMEscan
Format in all cases: binding
Conditions in all cases: read-out: % Ctrl
PIK3CA(E542K) = molecular target: T1, PIK3CA(E542K) (Homo sapiens, UniProt P42336, E542K)
T1 construct: purchased DiscoveRx KINOMEscan

QSK = molecular target: T2, QSK (Homo sapiens, UniProt Q9Y2K2)
T2 construct: purchased DiscoveRx KINOMEscan
How it was run: (§1)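 Competition binding panel of 442 non-mutant kinases: test compound at 5 and 10 μM competed with an active-site-directed ligand for 1 h with shaking. Bound kinase was eluted with 0.5 μM ligand and quantified by qPCR; %Ctrl = (compound − positive control)/(DMSO − positive control) × 100, lower meaning tighter binding.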

CDKL5 = molecular target: T3, CDKL5 (Homo sapiens, UniProt O76039)
T3 construct: purchased DiscoveRx KINOMEscan
How it was run: as §1

TSSK1B = molecular target: T4, TSSK1B (Homo sapiens, UniProt Q9BXA7)
T4 construct: purchased DiscoveRx KINOMEscan
How it was run: as §1

TNNI3K = molecular target: T5, TNNI3K (Homo sapiens, UniProt Q59H18)
T5 construct: purchased DiscoveRx KINOMEscan
How it was run: as §1

EPHA6 = molecular target: T6, EPHA6 (Homo sapiens, UniProt Q9UF33)
T6 construct: purchased DiscoveRx KINOMEscan
How it was run: as §1

CASK = molecular target: T7, CASK (Homo sapiens, UniProt O14936)
T7 construct: purchased DiscoveRx KINOMEscan
How it was run: as §1

BRAF = molecular target: T8, BRAF (Homo sapiens, UniProt P15056)
T8 construct: purchased DiscoveRx KINOMEscan
How it was run: as §1

RIPK4 = molecular target: T9, RIPK4 (Homo sapiens, UniProt P57078)
T9 construct: purchased DiscoveRx KINOMEscan
How it was run: as §1

ASK2 = molecular target: T10, ASK2 (Homo sapiens, UniProt O95382)
T10 construct: purchased DiscoveRx KINOMEscan
How it was run: as §1

MAP4K2 = molecular target: T11, MAP4K2 (Homo sapiens, UniProt Q12851)
T11 construct: purchased DiscoveRx KINOMEscan
How it was run: as §1

CDKL1 = molecular target: T12, CDKL1 (Homo sapiens, UniProt Q00532)
T12 construct: purchased DiscoveRx KINOMEscan
How it was run: as §1

EGFR(G719S) = molecular target: T13, EGFR(G719S) (Homo sapiens, UniProt P00533, G719S)
T13 construct: purchased DiscoveRx KINOMEscan

AURKC = molecular target: T14, AURKC (Homo sapiens, UniProt Q9UQB9)
T14 construct: purchased DiscoveRx KINOMEscan
How it was run: as §1

PKAC-alpha = molecular target: T15, PKAC-alpha (Homo sapiens, UniProt P17612)
T15 construct: purchased DiscoveRx KINOMEscan
How it was run: as §1

BLK = molecular target: T16, BLK (Homo sapiens, UniProt P51451)
T16 construct: purchased DiscoveRx KINOMEscan
How it was run: as §1

TESK1 = molecular target: T17, TESK1 (Homo sapiens, UniProt Q15569)
T17 construct: purchased DiscoveRx KINOMEscan
How it was run: as §1

FGFR3 = molecular target: T18, FGFR3 (Homo sapiens, UniProt P22607)
T18 construct: purchased DiscoveRx KINOMEscan
How it was run: as §1

DLK = molecular target: T19, DLK (Homo sapiens, UniProt Q12852)
T19 construct: purchased DiscoveRx KINOMEscan
How it was run: as §1

LTK = molecular target: T20, LTK (Homo sapiens, UniProt P29376)
T20 construct: purchased DiscoveRx KINOMEscan
How it was run: as §1

SRPK1 = molecular target: T21, SRPK1 (Homo sapiens, UniProt Q96SB4)
T21 construct: purchased DiscoveRx KINOMEscan
How it was run: as §1

PYK2 = molecular target: T22, PYK2 (Homo sapiens, UniProt Q14289)
T22 construct: purchased DiscoveRx KINOMEscan
How it was run: as §1

CAMK2D = molecular target: T23, CAMK2D (Homo sapiens, UniProt Q13557)
T23 construct: purchased DiscoveRx KINOMEscan
How it was run: as §1

RIPK2 = molecular target: T24, RIPK2 (Homo sapiens, UniProt O43353)
T24 construct: purchased DiscoveRx KINOMEscan
How it was run: as §1

[1] = molecular target: T25, TYK2(JH2domain-pseudokinase) (Homo sapiens, UniProt P29597)
T25 construct: TYK2(JH2domain-pseudokinase); purchased DiscoveRx KINOMEscan
How it was run: as §1

CDC2L2 = molecular target: T26, CDC2L2 (Homo sapiens, UniProt Q9UQ88)
T26 construct: purchased DiscoveRx KINOMEscan
How it was run: as §1

ADCK4 = molecular target: T27, ADCK4 (Homo sapiens, UniProt Q96D53)
T27 construct: purchased DiscoveRx KINOMEscan
How it was run: as §1

FYN = molecular target: T28, FYN (Homo sapiens, UniProt P06241)
T28 construct: purchased DiscoveRx KINOMEscan
How it was run: as §1

SNRK = molecular target: T29, SNRK (Homo sapiens, UniProt Q9NRH2)
T29 construct: purchased DiscoveRx KINOMEscan
How it was run: as §1

TRKB = molecular target: T30, TRKB (Homo sapiens, UniProt Q16620)
T30 construct: purchased DiscoveRx KINOMEscan
How it was run: as §1

T18 sequence (P22607 23-806): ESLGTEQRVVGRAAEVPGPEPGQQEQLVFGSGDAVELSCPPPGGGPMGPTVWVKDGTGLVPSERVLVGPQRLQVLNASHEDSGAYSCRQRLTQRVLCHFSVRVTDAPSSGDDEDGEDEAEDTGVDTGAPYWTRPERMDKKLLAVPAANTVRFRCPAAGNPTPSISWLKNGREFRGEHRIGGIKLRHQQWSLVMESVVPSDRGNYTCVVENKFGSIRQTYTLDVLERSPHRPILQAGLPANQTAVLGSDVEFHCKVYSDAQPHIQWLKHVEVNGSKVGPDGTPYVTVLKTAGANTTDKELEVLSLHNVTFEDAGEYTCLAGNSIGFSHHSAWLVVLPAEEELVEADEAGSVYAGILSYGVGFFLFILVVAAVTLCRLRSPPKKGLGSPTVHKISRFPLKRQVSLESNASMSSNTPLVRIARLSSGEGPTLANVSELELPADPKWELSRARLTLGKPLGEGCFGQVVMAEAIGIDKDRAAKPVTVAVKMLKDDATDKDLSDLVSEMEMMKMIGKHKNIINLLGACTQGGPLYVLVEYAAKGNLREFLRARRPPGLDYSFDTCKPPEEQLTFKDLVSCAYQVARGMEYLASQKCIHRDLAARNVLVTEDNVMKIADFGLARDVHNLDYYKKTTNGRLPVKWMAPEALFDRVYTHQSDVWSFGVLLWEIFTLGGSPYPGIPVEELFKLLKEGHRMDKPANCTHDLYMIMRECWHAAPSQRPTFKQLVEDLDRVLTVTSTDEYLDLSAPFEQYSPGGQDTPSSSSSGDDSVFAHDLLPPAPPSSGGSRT
T19 sequence (Q12852 whole entry): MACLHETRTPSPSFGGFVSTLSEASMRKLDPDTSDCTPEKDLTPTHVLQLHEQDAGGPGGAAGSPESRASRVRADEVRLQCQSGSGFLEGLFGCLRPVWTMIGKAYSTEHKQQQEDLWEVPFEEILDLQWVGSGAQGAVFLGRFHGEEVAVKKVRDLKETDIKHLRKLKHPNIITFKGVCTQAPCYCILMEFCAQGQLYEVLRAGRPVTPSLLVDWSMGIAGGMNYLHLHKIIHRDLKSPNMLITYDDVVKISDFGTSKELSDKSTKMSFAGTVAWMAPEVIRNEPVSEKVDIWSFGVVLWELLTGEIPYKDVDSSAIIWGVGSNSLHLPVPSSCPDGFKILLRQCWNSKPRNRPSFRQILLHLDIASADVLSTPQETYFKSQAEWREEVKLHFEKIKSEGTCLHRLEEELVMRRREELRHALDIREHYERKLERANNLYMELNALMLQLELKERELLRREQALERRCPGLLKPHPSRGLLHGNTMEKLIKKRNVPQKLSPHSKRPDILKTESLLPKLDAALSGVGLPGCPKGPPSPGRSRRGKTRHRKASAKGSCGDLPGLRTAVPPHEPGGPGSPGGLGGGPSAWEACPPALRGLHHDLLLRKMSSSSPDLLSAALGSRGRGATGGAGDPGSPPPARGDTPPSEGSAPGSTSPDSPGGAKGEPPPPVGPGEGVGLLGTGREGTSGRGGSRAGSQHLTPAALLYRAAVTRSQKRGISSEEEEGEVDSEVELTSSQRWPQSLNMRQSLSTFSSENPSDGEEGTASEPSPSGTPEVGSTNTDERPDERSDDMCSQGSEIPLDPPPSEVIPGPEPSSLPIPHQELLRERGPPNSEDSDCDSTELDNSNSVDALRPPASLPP
T30 sequence (Q16620 32-822): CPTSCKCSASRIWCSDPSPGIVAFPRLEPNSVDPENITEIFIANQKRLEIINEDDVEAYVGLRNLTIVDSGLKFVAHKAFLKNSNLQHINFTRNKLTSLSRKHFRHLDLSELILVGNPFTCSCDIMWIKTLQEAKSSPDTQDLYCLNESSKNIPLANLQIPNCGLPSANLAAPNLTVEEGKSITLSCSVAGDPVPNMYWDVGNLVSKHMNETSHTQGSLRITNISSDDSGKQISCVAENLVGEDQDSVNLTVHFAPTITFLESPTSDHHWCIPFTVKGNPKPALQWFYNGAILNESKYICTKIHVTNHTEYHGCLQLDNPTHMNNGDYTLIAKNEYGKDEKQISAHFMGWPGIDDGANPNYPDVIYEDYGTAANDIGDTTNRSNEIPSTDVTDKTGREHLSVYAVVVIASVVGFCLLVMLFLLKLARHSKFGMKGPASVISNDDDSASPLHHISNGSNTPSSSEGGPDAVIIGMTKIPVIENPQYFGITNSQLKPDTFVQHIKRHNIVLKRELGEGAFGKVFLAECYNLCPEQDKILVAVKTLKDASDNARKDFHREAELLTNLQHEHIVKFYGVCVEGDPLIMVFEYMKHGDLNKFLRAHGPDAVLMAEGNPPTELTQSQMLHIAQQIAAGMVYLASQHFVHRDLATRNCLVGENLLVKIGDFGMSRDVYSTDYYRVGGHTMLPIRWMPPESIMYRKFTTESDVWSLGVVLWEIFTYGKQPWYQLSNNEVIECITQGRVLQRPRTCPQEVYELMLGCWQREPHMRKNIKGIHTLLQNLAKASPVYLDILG
T9 sequence (P57078 whole entry): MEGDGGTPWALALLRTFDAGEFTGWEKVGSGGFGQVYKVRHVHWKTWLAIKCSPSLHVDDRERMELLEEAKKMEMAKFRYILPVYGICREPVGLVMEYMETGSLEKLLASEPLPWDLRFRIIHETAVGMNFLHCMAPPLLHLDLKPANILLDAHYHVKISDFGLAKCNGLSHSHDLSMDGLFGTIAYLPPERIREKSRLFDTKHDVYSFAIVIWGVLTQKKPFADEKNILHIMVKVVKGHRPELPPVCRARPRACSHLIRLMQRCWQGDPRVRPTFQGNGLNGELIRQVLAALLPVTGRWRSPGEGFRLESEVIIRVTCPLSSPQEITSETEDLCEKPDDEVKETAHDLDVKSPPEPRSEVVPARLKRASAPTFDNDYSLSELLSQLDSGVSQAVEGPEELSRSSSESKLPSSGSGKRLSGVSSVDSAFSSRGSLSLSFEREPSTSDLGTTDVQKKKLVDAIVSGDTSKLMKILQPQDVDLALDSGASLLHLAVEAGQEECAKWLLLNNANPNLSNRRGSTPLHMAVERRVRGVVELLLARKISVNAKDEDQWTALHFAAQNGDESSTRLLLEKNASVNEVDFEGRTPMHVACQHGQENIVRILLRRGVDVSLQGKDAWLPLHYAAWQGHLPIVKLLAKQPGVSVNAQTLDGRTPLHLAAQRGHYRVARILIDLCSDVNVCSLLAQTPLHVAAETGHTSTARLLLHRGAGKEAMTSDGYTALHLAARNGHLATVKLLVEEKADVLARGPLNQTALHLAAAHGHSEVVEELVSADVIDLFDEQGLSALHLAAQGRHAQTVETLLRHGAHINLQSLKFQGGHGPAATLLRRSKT
T26 sequence (Q9UQ88 whole entry): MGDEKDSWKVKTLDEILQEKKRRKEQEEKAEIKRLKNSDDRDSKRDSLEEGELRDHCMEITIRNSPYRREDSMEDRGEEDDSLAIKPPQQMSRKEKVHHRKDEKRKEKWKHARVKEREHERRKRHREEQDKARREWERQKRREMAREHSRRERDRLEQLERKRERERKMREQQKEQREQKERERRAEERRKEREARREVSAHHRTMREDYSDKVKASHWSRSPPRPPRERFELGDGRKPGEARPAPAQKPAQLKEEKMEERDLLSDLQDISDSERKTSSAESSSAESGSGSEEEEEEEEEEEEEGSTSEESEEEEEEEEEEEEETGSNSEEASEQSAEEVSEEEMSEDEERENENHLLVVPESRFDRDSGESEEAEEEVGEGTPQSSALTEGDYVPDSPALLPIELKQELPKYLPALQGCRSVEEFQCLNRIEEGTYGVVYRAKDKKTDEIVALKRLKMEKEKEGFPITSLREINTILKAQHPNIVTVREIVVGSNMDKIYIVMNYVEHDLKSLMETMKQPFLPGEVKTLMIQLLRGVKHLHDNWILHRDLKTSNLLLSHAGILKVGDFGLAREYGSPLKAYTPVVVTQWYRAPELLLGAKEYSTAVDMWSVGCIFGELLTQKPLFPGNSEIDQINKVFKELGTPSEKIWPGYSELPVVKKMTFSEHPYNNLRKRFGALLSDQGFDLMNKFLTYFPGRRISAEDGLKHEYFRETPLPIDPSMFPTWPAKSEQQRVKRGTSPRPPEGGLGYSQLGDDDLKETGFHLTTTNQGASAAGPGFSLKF
T27 sequence (Q96D53 whole entry): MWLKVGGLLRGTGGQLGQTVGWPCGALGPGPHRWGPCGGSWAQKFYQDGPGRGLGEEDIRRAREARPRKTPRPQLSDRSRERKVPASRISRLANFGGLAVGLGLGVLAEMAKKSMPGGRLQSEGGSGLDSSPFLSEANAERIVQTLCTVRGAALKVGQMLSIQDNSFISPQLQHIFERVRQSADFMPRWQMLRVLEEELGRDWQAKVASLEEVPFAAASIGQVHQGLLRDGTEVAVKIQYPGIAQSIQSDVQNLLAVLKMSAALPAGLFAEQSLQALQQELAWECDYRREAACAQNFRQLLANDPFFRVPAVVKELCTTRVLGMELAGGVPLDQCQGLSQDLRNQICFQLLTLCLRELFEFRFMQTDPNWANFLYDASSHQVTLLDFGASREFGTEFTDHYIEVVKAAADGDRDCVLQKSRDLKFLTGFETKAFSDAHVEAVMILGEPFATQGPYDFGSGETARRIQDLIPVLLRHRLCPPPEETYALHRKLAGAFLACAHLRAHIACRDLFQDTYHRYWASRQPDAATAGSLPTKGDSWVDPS
T14 sequence (Q9UQB9 whole entry): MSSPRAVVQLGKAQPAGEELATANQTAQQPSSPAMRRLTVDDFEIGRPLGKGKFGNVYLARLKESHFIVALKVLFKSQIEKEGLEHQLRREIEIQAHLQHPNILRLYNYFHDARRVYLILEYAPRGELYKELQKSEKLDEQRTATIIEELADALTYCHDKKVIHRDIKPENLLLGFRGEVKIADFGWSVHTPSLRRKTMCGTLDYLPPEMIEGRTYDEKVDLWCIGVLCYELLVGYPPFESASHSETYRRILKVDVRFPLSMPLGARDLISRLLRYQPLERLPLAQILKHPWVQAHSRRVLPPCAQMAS

Cc1ccc(C2=Nc3cccnc3S(=O)(=O)c3ccccc32)cc1 [TBPT, 6-(p-tolyl)benzo[f] pyrido[2,3-b][1,4] thiazepine 11,11-dioxide]
remaining binding at 5 µM (PIK3CA(E542K); 5 μM): 93%
remaining binding at 10 µM (PIK3CA(E542K); 10 μM): 97%
remaining binding at 5 µM (QSK; 5 μM): 76%
remaining binding at 10 µM (QSK; 10 μM): 100%
remaining binding at 5 µM (CDKL5; 5 μM): 100%
remaining binding at 10 µM (CDKL5; 10 μM): 100%
remaining binding at 5 µM (TSSK1B; 5 μM): 90%
remaining binding at 10 µM (TSSK1B; 10 μM): 100%
remaining binding at 5 µM (TNNI3K; 5 μM): 100%
remaining binding at 10 µM (TNNI3K; 10 μM): 89%
remaining binding at 5 µM (EPHA6; 5 μM): 98%
remaining binding at 10 µM (EPHA6; 10 μM): 92%
remaining binding at 5 µM (CASK; 5 μM): 100%
remaining binding at 10 µM (CASK; 10 μM): 100%
remaining binding at 5 µM (BRAF; 5 μM): 100%
remaining binding at 10 µM (BRAF; 10 μM): 100%
remaining binding at 5 µM (RIPK4; 5 μM): 100%
remaining binding at 10 µM (RIPK4; 10 μM): 100%
remaining binding at 5 µM (ASK2; 5 μM): 82%
remaining binding at 10 µM (ASK2; 10 μM): 100%
remaining binding at 5 µM (MAP4K2; 5 μM): 92%
remaining binding at 10 µM (MAP4K2; 10 μM): 100%
remaining binding at 5 µM (CDKL1; 5 μM): 94%
remaining binding at 10 µM (CDKL1; 10 μM): 88%
remaining binding at 5 µM (EGFR(G719S); 5 μM): 83%
remaining binding at 10 µM (EGFR(G719S); 10 μM): 94%
remaining binding at 5 µM (AURKC; 5 μM): 85%
remaining binding at 10 µM (AURKC; 10 μM): 96%
remaining binding at 5 µM (PKAC-alpha; 5 μM): 93%
remaining binding at 10 µM (PKAC-alpha; 10 μM): 100%
remaining binding at 5 µM (BLK; 5 μM): 88%
remaining binding at 10 µM (BLK; 10 μM): 88%
remaining binding at 5 µM (TESK1; 5 μM): 87%
remaining binding at 10 µM (TESK1; 10 μM): 95%
remaining binding at 5 µM (FGFR3; 5 μM): 89%
remaining binding at 10 µM (FGFR3; 10 μM): 100%
remaining binding at 5 µM (DLK; 5 μM): 88%
remaining binding at 10 µM (DLK; 10 μM): 81%
remaining binding at 5 µM (LTK; 5 μM): 100%
remaining binding at 10 µM (LTK; 10 μM): 100%
remaining binding at 5 µM (SRPK1; 5 μM): 88%
remaining binding at 10 µM (SRPK1; 10 μM): 67%
remaining binding at 5 µM (PYK2; 5 μM): 100%
remaining binding at 10 µM (PYK2; 10 μM): 100%
remaining binding at 5 µM (CAMK2D; 5 μM): 94%
remaining binding at 10 µM (CAMK2D; 10 μM): 100%
remaining binding at 5 µM (RIPK2; 5 μM): 92%
remaining binding at 10 µM (RIPK2; 10 μM): 97%
remaining binding at 5 µM ([1]; 5 μM): 82%
remaining binding at 10 µM ([1]; 10 μM): 100%
remaining binding at 5 µM (CDC2L2; 5 μM): 100%
remaining binding at 10 µM (CDC2L2; 10 μM): 100%
remaining binding at 5 µM (ADCK4; 5 μM): 83%
remaining binding at 10 µM (ADCK4; 10 μM): 94%
remaining binding at 5 µM (FYN; 5 μM): 85%
remaining binding at 10 µM (FYN; 10 μM): 95%
remaining binding at 5 µM (SNRK; 5 μM): 100%
remaining binding at 10 µM (SNRK; 10 μM): 100%
remaining binding at 5 µM (TRKB; 5 μM): 96%
remaining binding at 10 µM (TRKB; 10 μM): 100%
